Measurements taken from patent US5750558A, “Oxime derivatives of indole and indene compounds as inhibitors of prostaglandin biosynthesis” (Abbott Laboratories, priority 1996, dated 1998).
pIC50: −log10 of the molar value.

Tests used:
recombinant human PGHS-2 = biological target: T1, recombinant human PGHS-2 (Homo sapiens, UniProt P35354); experiment: Inhibition of prostaglandin biosynthesis in recombinant human PGHS-2 enzyme assay (PGE2 by EIA); type: biochemical
T1 construct: made in house; host or cells: baculovirus/Sf9 insect cells (microsomes)
T1 sequence (P35354 18-604): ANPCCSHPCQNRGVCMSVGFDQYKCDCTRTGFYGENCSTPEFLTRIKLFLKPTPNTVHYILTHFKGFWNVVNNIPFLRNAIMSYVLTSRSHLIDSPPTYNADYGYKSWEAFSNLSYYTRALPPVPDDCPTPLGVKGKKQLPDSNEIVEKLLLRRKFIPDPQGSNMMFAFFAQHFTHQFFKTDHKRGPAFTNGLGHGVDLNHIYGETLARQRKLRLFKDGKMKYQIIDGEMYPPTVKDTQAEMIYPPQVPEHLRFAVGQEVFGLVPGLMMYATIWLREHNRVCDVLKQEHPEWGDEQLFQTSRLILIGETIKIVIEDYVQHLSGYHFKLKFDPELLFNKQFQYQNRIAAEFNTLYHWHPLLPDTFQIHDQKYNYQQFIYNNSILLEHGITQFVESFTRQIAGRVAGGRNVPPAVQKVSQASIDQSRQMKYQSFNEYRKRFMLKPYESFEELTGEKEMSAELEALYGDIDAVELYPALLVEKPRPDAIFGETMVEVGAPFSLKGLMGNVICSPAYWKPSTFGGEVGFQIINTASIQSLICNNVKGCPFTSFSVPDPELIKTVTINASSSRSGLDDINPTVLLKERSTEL
Procedure: (§1) Inhibition of prostaglandin biosynthesis was evaluated in recombinant human PGHS-1 and PGHS-2 enzyme assays. Representative compounds dissolved in DMSO (3.3% v/v) were preincubated with microsomes from recombinant human PGHS-1 or PGHS-2 expressed in the baculovirus/Sf9 cell system (Gierse, J. K., Hauser, S. D., Creely, D. P., Koboldt, C., Rangwala, S., H., Isakson, P. C., and Seibert, K. Expression and selective inhibition of the constituitive and inducible forms of cyclooxygenase Biochem J. 1995, 305: 479.), together with the cofactors phenol (2 mM) and hematin (1 μM) for 60 minutes prior to the addition of 10 μM arachidonic acid. The reaction was allowed to run for 2.5 minutes at room temperature prior to quenching with HCl and neutralization with NaOH. PGE2 production in the presence and absence of the drug was determined by EIA analysis. The EIA was conducted in 96 well microtiter plates (Nunc Roskilde, Denmark) and optical density measured using a microplate reader (Vmax, Molecular Devices Corp., Menlo Park, Calif.). EIA reagents for prostaglandin determination were purchased from Perseptive Diagnostics, Cambridge, Mass. PGE2 levels were measured against standards prepared in the same milieu. The immunoassays were conducted as recommended by the manufacturer.

recombinant human PGHS-1 = biological target: T2, recombinant human PGHS-1 (Homo sapiens, UniProt P23219); experiment: Inhibition of prostaglandin biosynthesis in recombinant human PGHS-1 enzyme assay (PGE2 by EIA); type: biochemical
T2 construct: made in house; host or cells: baculovirus/Sf9 insect cells (microsomes)
Procedure: as §1

PGHS-2 = conditions: background statement; cited from earlier work
PGHS-1 = conditions: background statement; cited from earlier work

T2 sequence (P23219 24-599): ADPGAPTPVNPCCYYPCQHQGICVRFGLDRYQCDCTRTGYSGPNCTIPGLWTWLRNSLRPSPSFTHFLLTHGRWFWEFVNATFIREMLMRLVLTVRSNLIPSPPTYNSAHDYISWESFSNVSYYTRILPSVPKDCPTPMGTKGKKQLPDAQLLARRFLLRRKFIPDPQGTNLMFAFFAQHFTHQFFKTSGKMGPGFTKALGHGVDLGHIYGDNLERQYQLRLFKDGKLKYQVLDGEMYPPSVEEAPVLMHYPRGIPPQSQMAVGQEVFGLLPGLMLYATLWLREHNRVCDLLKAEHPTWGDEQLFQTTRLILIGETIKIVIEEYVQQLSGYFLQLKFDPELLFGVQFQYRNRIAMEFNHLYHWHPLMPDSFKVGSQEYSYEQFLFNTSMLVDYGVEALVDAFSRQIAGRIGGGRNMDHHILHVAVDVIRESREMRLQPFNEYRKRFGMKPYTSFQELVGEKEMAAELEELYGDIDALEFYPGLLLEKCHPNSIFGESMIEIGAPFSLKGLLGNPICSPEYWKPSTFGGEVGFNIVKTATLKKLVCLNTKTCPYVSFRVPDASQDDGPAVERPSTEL

Row | Compound | inhibition of PGHS-2 (PGHS-2) | inhibition of PGHS-1 (PGHS-1) | further results
1 | COc1ccc2c(c1)c(CC=NOCC(=O)OCC(O)CO)c(C)n2C(=O)c1ccc(Cl)cc1 (racemic) [Example 3, (4-chlorobenzoyl-5-methoxy-2-methylindol-3-yl) acetaldehyde-.omicron.-4-(2.3-dihydroxypropyloxycarbonylmethyl) oxime] | – | – | inhibition at 0.1 µM (recombinant human PGHS-2; @ 0.1 μM, human recombinant PGHS-2, read-out: PGHS-2 % inhibition (printed in PGHS-2 IC50 column)): 70%; inhibition at 1 µM (recombinant human PGHS-1; @ 1 μM, human recombinant PGHS-1, read-out: PGHS-1 % inhibition (printed in PGHS-1 IC50 column)): 41%
2 | COc1ccc2c(c1)c(CC=NOCC(=O)O)c(C)n2C(=O)c1ccc(Cl)cc1 [Example 1, (4-chlorobenzoyl-5-methoxy-2-methylindol-3-yl) acetaldehyde-.omicron.-carboxymethyl oxime] | – | – | pIC50 (recombinant human PGHS-2): 6.14
3 | COc1ccc2c(c1)c(CC=NOCC(=O)OCC1COC(C)(C)O1)c(C)n2C(=O)c1ccc(Cl)cc1 (stereo not shown) [Example 2, (4-chlorobenzoyl-5-methoxy-2-methylindol-3-yl) acetaldehyde-.omicron.-4-(2.2-dimethyldioxanylmethyloxycarbonylmethyl) oxime] | – | – | pIC50 (recombinant human PGHS-2): 8.52; pIC50 (recombinant human PGHS-1): 7.05
4 | COc1ccc2c(c1)c(CC(=O)O)c(C)n2C(=O)c1ccc(Cl)cc1 [Indomethacin] | inhibit both PGHS-1 and PGHS-2 | inhibit both PGHS-1 and PGHS-2 | –
5 | CC(C)Cc1ccc(C(C)C(=O)O)cc1 (stereo not shown) [ibuprofen] | inhibit both isozymes | inhibit both isozymes | –
6 | COc1ccc2cc([C@H](C)C(=O)O)ccc2c1 [naproxen] | inhibit both isozymes | inhibit both isozymes | –
7 | CC1=C(CC(=O)O)c2cc(F)ccc2/C1=C\c1ccc([S+](C)[O-])cc1 (stereo not shown) [sulindac] | inhibit both PGHS-1 and PGHS-2 | inhibit both PGHS-1 and PGHS-2 | –
